# Measured values from ChEMBL document CHEMBL1201862, “PubChem BioAssay data set” (2004).
# Active and inactive are the calls of the source.
# Experiments:
# Cytochrome P450 2C19 = Cytochrome P450 2C19 (Homo sapiens, UniProt P33261); assay: Cytochrome panel assay with activity outcomes. Panel member name: p450-cyp2c19 Compounds with AC50 equal or less than 10 uM are considered active; type: functional; details: read-out: AC50
# Cytochrome P450 2D6 = Cytochrome P450 2D6 (Homo sapiens, UniProt P10635);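 note: CYP2D6 member of a cytochrome P450 panel assay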
# Cytochrome P450 1A2 = biological target: T1, Cytochrome P450 1A2 (Homo sapiens, UniProt P05177);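 note: PubChem cytochrome P450 panel assay, CYP1A2 panel member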
# T1 sequence (P05177 whole entry): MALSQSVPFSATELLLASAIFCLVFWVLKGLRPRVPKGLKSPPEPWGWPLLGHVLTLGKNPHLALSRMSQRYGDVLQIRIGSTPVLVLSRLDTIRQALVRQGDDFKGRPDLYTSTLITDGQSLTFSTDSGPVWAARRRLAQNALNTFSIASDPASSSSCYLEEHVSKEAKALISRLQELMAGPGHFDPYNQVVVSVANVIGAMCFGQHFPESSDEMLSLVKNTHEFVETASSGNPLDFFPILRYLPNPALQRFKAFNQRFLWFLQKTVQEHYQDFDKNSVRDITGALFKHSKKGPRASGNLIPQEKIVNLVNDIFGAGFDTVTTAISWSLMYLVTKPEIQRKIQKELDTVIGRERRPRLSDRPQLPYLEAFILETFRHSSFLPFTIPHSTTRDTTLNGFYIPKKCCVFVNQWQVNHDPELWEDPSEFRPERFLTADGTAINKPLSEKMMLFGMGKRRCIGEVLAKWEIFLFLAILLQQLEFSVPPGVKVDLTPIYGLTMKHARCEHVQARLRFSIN
# [1] = biological target: T2, Corticotropin-releasing factor receptor 2/Corticotropin-releasing factor-binding protein (Homo sapiens, UniProt P24387+Q13324); assay: Dose Response confirmation of uHTS hits for small molecule antagonists of the CRF-binding protein and CRF-R2 receptor complex.; type: functional; details: read-out: IC50_Mean
# T2 sequence (Q13324 whole entry): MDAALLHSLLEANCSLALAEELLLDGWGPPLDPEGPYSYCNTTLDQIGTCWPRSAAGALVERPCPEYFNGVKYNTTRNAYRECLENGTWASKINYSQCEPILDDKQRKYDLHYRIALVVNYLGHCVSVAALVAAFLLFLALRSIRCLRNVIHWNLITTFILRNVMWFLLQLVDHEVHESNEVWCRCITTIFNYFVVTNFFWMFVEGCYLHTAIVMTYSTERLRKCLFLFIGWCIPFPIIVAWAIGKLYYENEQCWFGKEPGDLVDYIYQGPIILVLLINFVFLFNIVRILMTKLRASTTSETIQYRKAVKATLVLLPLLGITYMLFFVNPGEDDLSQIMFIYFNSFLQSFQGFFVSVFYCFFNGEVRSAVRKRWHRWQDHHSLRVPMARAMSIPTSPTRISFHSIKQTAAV
# T2 sequence (P24387 whole entry): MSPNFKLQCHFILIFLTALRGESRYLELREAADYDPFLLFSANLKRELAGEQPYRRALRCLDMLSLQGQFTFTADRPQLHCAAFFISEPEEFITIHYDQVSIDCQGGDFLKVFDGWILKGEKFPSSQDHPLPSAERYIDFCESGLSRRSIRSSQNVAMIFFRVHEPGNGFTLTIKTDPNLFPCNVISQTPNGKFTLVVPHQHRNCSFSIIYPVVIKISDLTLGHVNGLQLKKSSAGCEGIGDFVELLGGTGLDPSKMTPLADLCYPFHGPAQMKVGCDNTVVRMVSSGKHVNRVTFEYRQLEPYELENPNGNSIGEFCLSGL
# [2] = biological target: T2, Corticotropin-releasing factor receptor 2/Corticotropin-releasing factor-binding protein; assay: activators of CRF receptor 2 with binding protein – uHTS hits, confirmation (AID 602473); type: functional; details: read-out: EC50_Mean
# [3] = Luminescence Cell-Based Dose Confirmation HTS to Identify Activators of 5'UTR Stem-Loop Driven Alpha-Synuclein mRNA Translation in H4 Neuroglioblastoma Cells. [Related pubchem assays: 1829 (Project Summary), 1814 (Primary HTS)]; type: functional
# [4] = Luminescence Cell-Based Dose Response HTS to Identify Activators of Luciferase Translation or Activity in H4 […] Cells. [Related pubchem assays: 1829 (Project Summary), 1814 (Primary HTS)]; type: functional
# H4 = assay: Luminescence Cell-Based Dose Response HTS to Identify Activators of 5'UTR Stem-Loop Driven Prion Protein mRNA Translation in H4 Neuroglioblastoma Cells. [Related pubchem assays: 1829 (Project Summary), 1814 (Primary HTS)]; type: functional; details: Homo sapiens
# Cytochrome P450 2C9 = Cytochrome P450 2C9 (Homo sapiens, UniProt P11712)
# Cytochrome P450 3A4 = Cytochrome P450 3A4 (Homo sapiens, UniProt P08684);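 note: CYP3A4 tested as one member of a cytochrome P450 panel screen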
# Sequence of Cytochrome P450 3A4 (P08684 whole entry): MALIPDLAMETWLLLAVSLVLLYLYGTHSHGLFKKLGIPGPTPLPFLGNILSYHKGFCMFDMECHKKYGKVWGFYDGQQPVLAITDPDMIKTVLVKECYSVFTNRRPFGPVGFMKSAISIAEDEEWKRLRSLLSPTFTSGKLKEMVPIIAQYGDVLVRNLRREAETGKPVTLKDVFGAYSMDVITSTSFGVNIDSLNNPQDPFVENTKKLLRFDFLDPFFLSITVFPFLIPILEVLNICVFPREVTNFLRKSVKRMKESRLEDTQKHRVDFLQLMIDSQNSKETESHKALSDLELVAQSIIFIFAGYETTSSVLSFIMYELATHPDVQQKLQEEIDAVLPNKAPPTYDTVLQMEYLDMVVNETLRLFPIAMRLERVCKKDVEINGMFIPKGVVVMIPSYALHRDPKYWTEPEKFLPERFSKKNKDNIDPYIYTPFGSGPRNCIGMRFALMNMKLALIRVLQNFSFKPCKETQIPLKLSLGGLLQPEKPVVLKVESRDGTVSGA
# Sequence of Cytochrome P450 2C9 (P11712 whole entry): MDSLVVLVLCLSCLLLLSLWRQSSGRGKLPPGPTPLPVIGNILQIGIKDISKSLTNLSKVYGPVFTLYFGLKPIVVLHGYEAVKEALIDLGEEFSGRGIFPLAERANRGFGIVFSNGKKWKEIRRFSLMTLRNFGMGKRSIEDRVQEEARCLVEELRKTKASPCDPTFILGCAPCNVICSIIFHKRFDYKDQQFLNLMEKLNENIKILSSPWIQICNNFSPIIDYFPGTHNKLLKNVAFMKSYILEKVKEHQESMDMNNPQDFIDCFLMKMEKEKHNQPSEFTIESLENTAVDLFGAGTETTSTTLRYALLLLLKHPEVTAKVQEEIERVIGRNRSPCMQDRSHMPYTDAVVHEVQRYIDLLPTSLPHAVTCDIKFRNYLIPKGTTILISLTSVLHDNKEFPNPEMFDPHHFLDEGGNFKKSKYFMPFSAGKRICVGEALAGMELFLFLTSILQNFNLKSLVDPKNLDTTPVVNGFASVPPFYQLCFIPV
# Sequence of Cytochrome P450 2C19 (P33261 whole entry): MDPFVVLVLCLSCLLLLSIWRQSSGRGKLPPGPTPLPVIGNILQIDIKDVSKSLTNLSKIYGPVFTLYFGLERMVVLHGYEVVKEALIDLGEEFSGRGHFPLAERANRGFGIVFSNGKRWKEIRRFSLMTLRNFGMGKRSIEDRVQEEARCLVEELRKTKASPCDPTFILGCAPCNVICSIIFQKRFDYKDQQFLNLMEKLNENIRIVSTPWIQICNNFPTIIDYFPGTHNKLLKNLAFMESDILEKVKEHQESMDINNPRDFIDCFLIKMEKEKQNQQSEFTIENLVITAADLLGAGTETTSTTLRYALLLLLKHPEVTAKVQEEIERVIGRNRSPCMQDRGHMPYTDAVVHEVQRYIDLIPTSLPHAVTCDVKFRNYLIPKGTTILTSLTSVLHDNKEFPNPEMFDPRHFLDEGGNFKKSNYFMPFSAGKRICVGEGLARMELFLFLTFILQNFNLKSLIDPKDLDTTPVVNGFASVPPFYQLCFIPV
# Sequence of Cytochrome P450 2D6 (P10635 whole entry): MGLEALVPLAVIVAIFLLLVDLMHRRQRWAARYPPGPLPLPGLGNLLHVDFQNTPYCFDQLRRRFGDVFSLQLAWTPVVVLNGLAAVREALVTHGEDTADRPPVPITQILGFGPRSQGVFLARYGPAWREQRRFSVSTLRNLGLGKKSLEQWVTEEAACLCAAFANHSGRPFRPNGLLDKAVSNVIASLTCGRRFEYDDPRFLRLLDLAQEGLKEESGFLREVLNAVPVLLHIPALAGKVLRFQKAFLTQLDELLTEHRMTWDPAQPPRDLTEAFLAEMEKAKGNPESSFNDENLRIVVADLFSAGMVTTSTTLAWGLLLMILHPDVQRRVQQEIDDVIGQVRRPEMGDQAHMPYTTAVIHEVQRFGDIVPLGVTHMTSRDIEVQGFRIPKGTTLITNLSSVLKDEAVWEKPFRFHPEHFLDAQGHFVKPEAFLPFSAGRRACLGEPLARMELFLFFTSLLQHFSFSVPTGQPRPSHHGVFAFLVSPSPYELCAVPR
structure (smiles),measurement,setting,value
O=C(Nc1ccccc1)N1CCCC2(CCN(C(=O)c3csnn3)CC2)C1,AC50,Cytochrome P450 2C19,3.98 µM (inconclusive)
same,AC50,Cytochrome P450 2D6,39.8 µM (inconclusive)
same,AC50,Cytochrome P450 1A2,25.1 µM (inconclusive)
Cc1noc(C)c1-c1nc(N2CCN(C)CC2)c2ccccc2n1,AC50,Cytochrome P450 2D6,39.8 µM (inconclusive)
Nc1c(C(=O)N2CCCCCC2)oc2ccccc12,IC50,[1],> 47.1 µM (inactive)
same,EC50,[2],> 53 µM (inactive)
COc1ccc(CNC(=O)CN2CCN(S(=O)(=O)c3cc(Br)ccc3Br)CC2)cc1OC,IC50,[1],> 47.1 µM (inactive)
same,EC50,[2],> 53 µM (inactive)
Nn1c(SCc2ccccc2)nnc1C1CCCCC1,EC50,[3],25.5 µM (active)
same,EC50,[4],10.6 µM (active)
same,EC50,H4,21 µM (active)
COc1cc(/C=C2\CCC(C)C3=C(c4cc(OC)c(OC)c(OC)c4)C(C#N)=C(N)OC32)cc(OC)c1OC (centres undefined),EC50,[2],> 53 µM (inactive)
[O-]c1c[n+](CC[n+]2cc([O-])on2)no1,AC50,Cytochrome P450 1A2,2.51 µM (inconclusive)
Cc1cc(OCC(=O)C(C)(C)C)c2c(C)c(C)c(=O)oc2c1,IC50,[1],> 47.1 µM (inactive)
same,EC50,[2],> 53 µM (inactive)
COc1ccc(CCNC(=O)c2nnn(CC(=O)Nc3ccccc3C)c2N)cc1OC,AC50,Cytochrome P450 2C19,17.8 µM (inconclusive)
Cc1ccc(S(=O)(=O)NN=C(S)Nc2cccc(F)c2)cc1,IC50,[1],> 47.1 µM (inactive)
same,EC50,[2],> 53 µM (inactive)
Cc1cc(NC(=O)Cn2nc3c(cc2=O)CCCC3)ccc1Br,IC50,[1],> 47.1 µM (inactive)
same,EC50,[2],> 53 µM (inactive)
CCOC(=O)c1c(NC(=O)CCCN2CCOCC2)sc2c1CC(C)(C)OC2,AC50,Cytochrome P450 2C19,39.8 µM (inconclusive)
same,AC50,Cytochrome P450 2C9,0.282 µM (inconclusive)
CC(=O)c1ccc(N(C(=O)Cn2nnc3ccccc32)C(C(=O)NCc2ccccc2)c2ccccn2)cc1 (centres undefined),EC50,[3],> 120 µM (not active)
same,EC50,[4],8.14 µM (active)
same,EC50,H4,> 120 µM (not active)
CC(C)CN1CC[C@@]2(CCCN(C(=O)Oc3ccccc3)C2)C1,AC50,Cytochrome P450 1A2,15.8 µM (inconclusive)
same,AC50,Cytochrome P450 2C9,31.6 µM (inconclusive)
COc1cccc(Cn2c(=O)c(-c3ccc(Cl)cc3)nc3cnc(OC)nc32)c1,AC50,Cytochrome P450 2C19,1.26 µM (inconclusive)
same,AC50,Cytochrome P450 2C9,7.94 µM (inconclusive)
COC(=O)C1=C(C)NC(C)=C(C(=O)OC(C)C)[C@H]1c1cccc2nonc12 [(S)-ISRADIPINE],AC50,Cytochrome P450 1A2,12.6 µM (inconclusive)
Cc1cc(NC(=O)CSc2nc3c(C)cccc3cc2C#N)no1,EC50,[3],47.9 µM (active)
same,EC50,[4],> 120 µM (not active)
same,EC50,H4,16.1 µM (active)
CCC(=O)Nc1nnc(C(C)(C)C)s1,AC50,Cytochrome P450 1A2,17.8 µM (inconclusive)
O=C(/C=C/c1ccccc1)NNC(=O)c1cccnc1,AC50,Cytochrome P450 2C19,31.6 µM (inconclusive)
same,AC50,Cytochrome P450 2C9,7.08 µM (inconclusive)
CN(Cc1ccccc1)C(=O)c1cccc(NC(=O)Cc2ccc(NC(=O)C3CCCN(C(=O)CCc4ccccc4)C3)cc2)c1 (centres undefined),IC50,[1],> 47.1 µM (inactive)
same,EC50,[2],> 53 µM (inactive)
COc1ccc(N2CCN(CCCNC(=O)CN3CCN(Cc4ccccc4C)C3=O)CC2)cc1,IC50,[1],> 47.1 µM (inactive)
same,EC50,[2],> 53 µM (inactive)
C=CCn1c(SCC(=O)N2CC(=O)Nc3ccccc32)nc2scc(-c3ccccc3)c2c1=O,AC50,Cytochrome P450 1A2,14.1 µM (inconclusive)
COC(=O)[C@@]1(Cc2ccc(OC)cc2)[C@H]2c3cc(C(=O)N4CCCC4)n(Cc4c(CO)ncc(C)c4O)c3C[C@H]2CN1C(=O)c1ccccc1,AC50,Cytochrome P450 2D6,20 µM (inconclusive)
same,AC50,Cytochrome P450 1A2,25.1 µM (inconclusive)
O=C(Oc1ccc(S(=O)(=O)F)cc1F)c1ccccc1Cl,AC50,Cytochrome P450 1A2,5.01 µM (inconclusive)
O=C(NCC1CCCO1)C(c1cccnc1)N(C(=O)Cc1cccs1)c1ccccc1 (centres undefined),AC50,Cytochrome P450 2C19,17.8 µM (inconclusive)
same,AC50,Cytochrome P450 2D6,15.8 µM (inconclusive)
same,AC50,Cytochrome P450 2C9,15.8 µM (inconclusive)
Cc1ccc(C)c(Cn2cnc3c(cnn3C(C)(C)C)c2=O)c1,AC50,Cytochrome P450 1A2,10 µM (inconclusive)
same,AC50,Cytochrome P450 3A4,0.794 µM (inconclusive)
CCCCCC/C(C)=C1/SC(=S)NC1=O,AC50,Cytochrome P450 2D6,28.2 µM (inconclusive)
CC(N=C1NS(=O)(=O)c2ccccc21)C(=O)N1CCc2ccccc2C1 (centres undefined),IC50,[1],> 47.1 µM (inactive)
same,EC50,[2],> 53 µM (inactive)
Cc1ccccc1N(CC(=O)N1CCN(Cc2ccccc2)CC1)S(C)(=O)=O,IC50,[1],> 47.1 µM (inactive)
same,EC50,[2],> 53 µM (inactive)
O=C(CSCc1cccc(F)c1)N1CCN(c2ccccc2)CC1,EC50,[3],0.47 µM (active)
same,EC50,[4],6.73 µM (active)
same,EC50,H4,> 120 µM (not active)
Oc1c(CN2CCOCC2)cc(-c2ccccc2)cc1CN1CCOCC1,AC50,Cytochrome P450 2C19,11.2 µM (inconclusive)
same,AC50,Cytochrome P450 2C9,28.2 µM (inconclusive)
O=C(CSc1nnc(Cn2nnc3ccccc32)o1)Nc1cccc(Cl)c1,AC50,Cytochrome P450 2C19,22.4 µM (inconclusive)
same,AC50,Cytochrome P450 2C9,15.8 µM (inconclusive)
C=CC[C@@H]1C=C[C@H](Oc2ccc(C)cc2)[C@H](COC(=O)NCc2cccc3ccccc23)O1,AC50,Cytochrome P450 2D6,7.94 µM (inconclusive)
same,AC50,Cytochrome P450 2C9,3.98 µM (inconclusive)
CSc1ccccc1NC(=O)c1cc(-c2cccs2)on1,EC50,[3],55.7 µM (active)
same,EC50,[4],> 120 µM (not active)
same,EC50,H4,17.9 µM (active)
CCC(=C(CC)c1ccc(O)cc1)c1ccc(O)cc1 [DIETHYLSTILBESTROL],AC50,Cytochrome P450 2C19,15.8 µM (inconclusive)
same,AC50,Cytochrome P450 2D6,15.8 µM (inconclusive)
same,AC50,Cytochrome P450 1A2,15.8 µM (active)
same,AC50,Cytochrome P450 2C9,12.6 µM (active)
CC1=CC(C)(C(Cl)(Cl)Cl)C(C)=CC1=NO (centres undefined),IC50,[1],> 47.1 µM (inactive)
same,EC50,[2],> 53 µM (inactive)
Cc1ccccc1C(=O)c1cccn1CC(=O)NCc1ccco1,AC50,Cytochrome P450 1A2,10 µM (inconclusive)
COC(=O)C1CSc2[nH]c(=O)sc2C1c1ccc(O)c(OC)c1 (centres undefined),IC50,[1],> 47.1 µM (inactive)
same,EC50,[2],> 53 µM (inactive)
Nc1c2c(nc3ccccc13)CCN(Cc1ccccc1)C2,EC50,[2],> 53 µM (inactive)
CCOc1ccccc1NC(=O)C1CCC(=O)N1S(=O)(=O)c1ccc(C)cc1 (centres undefined),IC50,[1],> 47.1 µM (inactive)
same,EC50,[2],> 53 µM (inactive)
O=C(CC(=O)NN=C1CCCC1)NCCc1ccccc1,AC50,Cytochrome P450 2C19,25.1 µM (inconclusive)
COC(=O)[C@@]1(Cc2ccc(OC)cc2)[C@H]2c3cc(C(=O)N4CCCC4)n(CCN4CNCC4=O)c3C[C@H]2CN1C(=O)c1ccccc1,AC50,Cytochrome P450 1A2,31.6 µM (inconclusive)
NC(=S)c1ccc[n+]([C@@H]2O[C@@H](COP(=O)([O-])OP(=O)(O)OC[C@@H]3O[C@@H](n4cnc5c(N)ncnc54)[C@@H](OP(=O)(O)O)[C@H]3O)[C@@H](O)[C@H]2O)c1,AC50,Cytochrome P450 1A2,39.8 µM (inconclusive)
Oc1nc2cc(Cl)ccc2c(O)c1-c1ccc(Oc2ccccc2)cc1,AC50,Cytochrome P450 1A2,10 µM (inconclusive)
same,AC50,Cytochrome P450 3A4,10 µM (inconclusive)
O=C(CSc1nc2ccccc2c(=O)n1NC(=O)Cc1ccccc1)NCc1ccccc1Cl,AC50,Cytochrome P450 2D6,2.82 µM (inconclusive)
O=C(Nc1ccccc1N1CCOCC1)c1ccc([N+](=O)[O-])cc1,AC50,Cytochrome P450 2D6,15.8 µM (inconclusive)
same,AC50,Cytochrome P450 2C9,10 µM (inconclusive)
Cc1cc2c(nc1C)CCCCN2C[C@H](O)CN1CCCc2nc(-c3ccc(Br)cc3)ccc21,AC50,Cytochrome P450 2D6,3.16 µM (inconclusive)
same,AC50,Cytochrome P450 2C9,3.98 µM (inconclusive)
Cc1ccc(Oc2ccccc2/C=C2\SC(=O)N(C)C2=O)cc1,AC50,Cytochrome P450 2D6,8.91 µM (inconclusive)
